From US7674813B2, “Heterocyclic sulfonamide inhibitors of beta amyloid production containing an azole” (Wyeth, priority 2004, dated 2010) come the findings set out here.

Data set [1] has as its system amyloid precursor protein (APP) proteolysis. Put plainly: Repressor Release Assay (RRA). The class given is cell-based. More on the design: key to RRA data (footnote symbols): **: Inactive due to toxicity; however, this compound, at 3-4 μM, reduces Aβ levels by 50% in CHO cells transfected with human APP695 as measured by ELISA without exhibiting toxicity.; ***: Inactive; however, this compound, at 1-4 μM, reduces Aβ levels by 50% in CHO cells transfected with human APP695 as measured by ELISA without exhibiting toxicity. The following applies: transfected CHO-K1 cells; for fold induction at 20 µg/mL: Cricetulus griseus, CHO-K1, all compounds tested at 20 μg/mL, luciferase activity over diluent control, read-out: RRA data (Fold increase of APPI). As to the method: The beta amyloid inhibitory activity of many of the compounds of the present invention has been determined using the Repressor Release Assay (RRA). See, Table 3 below. A compound is considered active in RRA if it leads to at least a 1.5 fold increase in luciferase activity at 20 μg/mL and is non-toxic.
The compound is considered active in RRA if it leads to at least a 1.5 fold increase in APPI as measured by an increase in luciferase activity at 20 μg/mL and is non-toxic. Shuey, D. J., Sheiffele, P., Jones, D., Cockett, M. I., and Quinet, E. M. (1999) Repressor release: a useful tool for monitoring amyloid precursor protein (APP) proteolysis in mammalian cells. Society for Neuroscience Abstracts, Vol. 25, 29th Annual Meeting of Society for Neuroscience, Miami Beach, Fla., Oct. 23-28, 1999.
CHO—K1 cells are cultured in whole DMEM media (DMEM—High Glucose with 10% fetal bovine serum, 1% Non-essential Amino Acids, and 1% Penicillin-Streptomycin) at 37° C. with 5% CO2. Two million cells are plated into 10-cm dishes 24 hrs prior to transfection.
Transient transfections are completed as recommended by Gibco BRL using their Lipofectamine Plus system. First, 6 μg of pRSVO-luc and 6 μg of APP-lacI construct DNA are added to 460 μL Opti-Mem transfection media and incubated with 30 μL Plus reagent for 15 minutes. Then, a lipid mixture of 40 μL Lipofectamine reagent and 460 μL Opti-Mem transfection media is incubated with the DNA-Plus reagent mixture for 15 minutes. During the DNA-lipid incubation, the CHO—K1 cells are washed once and covered in 5.0 mL DMEM media without Penicillin-Streptomycin. The DNA-lipid preparation is then layered onto these cells and incubated at 37° C. overnight.
One and one half million transfected cells per well (100 μL total volume) are plated into sterile, opaque Packard 96-well Cultur-Plates in clear DMEM whole media (DMEM—without phenol red) and incubated at 37° C. with 5% CO2 for 3-5 hours.
Compounds are diluted using two different protocols; one protocol is used for compounds supplied neat (weighed powder in vial) and the other protocol is used for compounds supplied in solution (20 mM in DMSO in 96-well plates). For both protocols, 25 mM Hepes and 25 mM Hepes/1% DMSO are prepared fresh to be used as diluent. The Hepes/DMSO is used as the diluent control on all experimental plates.
The following Table 1 depicts the steps for compound dilution (the last step is the addition of compound to cells/media in tissue culture plate):
Because some compounds arrive in 96-well format at 20 mM, the following Table 2 represents the protocol for their dilution (an average molecular weight of these compounds was used to calculate these dilutions and as above, the last step is the addition of compound to cells/media in tissue culture plate):
Once compounds are diluted, they are applied in duplicate on cells in tissue culture plates (prepared above). Cells are incubated with compound at 37° C. with 5% CO2 for an additional 36-48 hours.
Luciferase assays (LucLite reagent, Packard) are performed and are read on a Packard TopCount instrument. Media is removed from each 96-well plate and replaced with 100 μL PBS per well (with Mg^2+ and Ca^2+). An equal volume (100 μL) of the LucLite lysis/substrate buffer is added to each well and the plates are sealed and mixed in the dark on a rotary shaker for 15-30 minutes at room temperature. Luciferase readings are then taken on the TopCount instrument. Measurements are expressed as relative light units (RLU) and are calculated and analyzed in MS Excel as follows:
Fold Increase: amount of luciferase activity (measured in relative light units) over diluent control.
SEM: standard error of the mean for fold increase.
Activity: A compound is considered active if it results in at least a 1.5 fold increase in luciferase activity at 20 μg/mL.
Toxicity: determined by loss of signal (<0.75 fold increase).

For the next data set, the system named is beta amyloid 42. Put plainly: Aβ40/42 ELISA Assay (Aβ42). The class given is cell-based. Conditions: CHO cells carrying the APP-REP-NL plasmid, 22 hours, sandwich ELISA; for EC50: Cricetulus griseus. As to the method:
(§1) Compounds are diluted from DMSO stocks to 2 μM and below in a cell culture medium. Compounds are then applied to CHO cells carrying the APP-REP-NL plasmid [Sudhir et. al, J. Biolog. Chem. 267:25602-25608 (1992)] for a period of 22 hours. After the conditioning period, medium is collected, diluted in assay buffer containing protein, and samples, controls, and synthetic peptide standards are incubated on a prepared ELISA plate. Using a sandwich ELISA with antibodies specifically directed against the carboxyl terminus of beta amyloid 40 or 42 (analogous to the method reported by Haugabook et al., J. Neurosci. Methods 108:171-179 (2001) but using goat anti-mouse IgG1 (source: Southern Biotech) as the anchor, 6E10 as the capture antibody (Source: SENETEK), rabbit antiAβ40 and antiAβ42 (source: QCB) and APL-donkey anti-rabbit IgG (H+L, source: Southern Biotech) as the detection antibody), the effect of the compound treatment on the cellular production of extracellular beta amyloid is quantified. Cells treated with compound are subsequently incubated in cell culture medium containing MTS-formazan. After a short incubation period, MTS/medium containing plates are read in a spectrophotometer to determine the extent to which compound toxicity affected the cell's metabolism and ability to synthesize beta amyloid.
(§2) A. Test Samples: compound samples are supplied as 20 mM stock solutions in a 100% DMSO solution.
(§3) B. APP-REP-NL cells: Qualified cell lines are carried from week to week using 1:100 dilutions and are cultured in DMEM supplemented with 1× antibiotic/antimycotic, 200 ug/ml of G418 antibiotic, and 10% certified fetal calf serum. Cells are also banked in liquid nitrogen. Periodically, beta amyloid production is assessed, and cells are either kept in culture or replaced with progenitors at full expression.
(§4) C. Antibodies: From certified lots that have already been qualified in this assay. Antibodies are stored in small frozen aliquots at −80° C. that are thawed and used.
(§5) A compound is considered active if it has an EC50 for Aβ40 reduction of <100 μM and no toxicity at doses in the vicinity of the EC50.

A further data set has as its system beta amyloid 40. Briefly: Aβ40/42 ELISA Assay (Aβ40). The class given is cell-based. The following applies: Cricetulus griseus; CHO cells carrying the APP-REP-NL plasmid, 22 hours, sandwich ELISA. As to the method:
as §1, §2, §3, §4, §5

For `CCC(CC)C(NS(=O)(=O)c1ccc(Cl)s1)c1ncnn1Cc1ccc(OC)cc1` (centres unmarked) [Example 21, 5-Chloro-N-{2-ethyl-1-[1-(4-methoxybenzyl)-1H-1,2,4-triazol-5-yl]butyl}thiophene-2-sulfonamide], the melting point lay in the range of 136 to 137 °C. Besides, the fold induction at 20 µg/mL in data set [1] came to 10.8. For the same compound, a half-maximal response in the data set on beta amyloid 42 (EC50) required 3.1 µM. In the data set on beta amyloid 40, this compound gave a half-maximal effective concentration (EC50) of 1.4 µM.
In turn, `Cc1ccc(Cn2ncnc2C(C)NS(=O)(=O)c2ccc(Cl)s2)cc1` (centres unmarked) [Example 26, 5-Chloro-N-{1-[1-(4-methylbenzyl)-1H-1,2,4-triazol-5-yl]ethyl}thiophene-2-sulfonamide] registered a melting point of 116 to 117 °C. Moreover, the fold induction at 20 µg/mL in data set [1] stood at 5.6. In the data set on beta amyloid 42, this compound came in with an EC50 of 15.5 µM. In the data set with beta amyloid 40, this compound registered an EC50 of 9.6 µM.
For the compound `CCC(CC)C(NS(=O)(=O)c1ccc(Cl)s1)c1ncnn1Cc1ccc(C)cc1` (centres unmarked) [Example 27, 5-Chloro-N-{2-ethyl-1-[1-(4-methylbenzyl)-1H-1,2,4-triazol-5-yl]butyl}thiophene-2-sulfonamide], the melting point is 103 to 104 °C. The fold induction at 20 µg/mL in data set [1] is 13. The compound also returned an EC50 with beta amyloid 42 of 6.2 µM. The compound further returned an EC50 in the data set with beta amyloid 40 of 2.7 µM.
With `CC(C)C(NS(=O)(=O)c1ccc(Cl)s1)c1ncnn1Cc1ccccc1` (centres unmarked) [Example 23, N-[1-(1-Benzyl-1H-1,2,4-triazol-5-yl)-2-methylpropyl]-5-chlorothiophene-2-sulfonamide], the melting point is 138 to 139 °C. Besides, the fold induction at 20 µg/mL in data set [1] worked out at 1.8. In addition, the EC50 with beta amyloid 42 is 13.2 µM. Moreover, the EC50 in the data set on beta amyloid 40 is 5.2 µM.
For `Cc1ccc(Cn2ncnc2C(NS(=O)(=O)c2ccc(Cl)s2)C(C)C)cc1` (centres unmarked) [Example 24, 5-Chloro-N-{2-methyl-1-[1-(4-methylbenzyl)-1H-1,2,4-triazol-5-yl]propyl}thiophene-2-sulfonamide], in that order: 124 to 125 °C, 1.8, 11 µM and 6 µM.
`CCC(CC)C(NS(=O)(=O)c1ccc(Cl)s1)c1ccnn1S(=O)(=O)c1ccc(C)cc1` (centres unmarked) [Example 9, 5-Chloro-N-(2-ethyl-1-{1-[(4-methylphenyl)sulfonyl]-1H-pyrazol-5-yl}butyl)thiophene-2-sulfonamide] returned a melting point of 146 to 148 °C. Besides, in data set [1] (tested at 20 μg/mL), the “RRA data (footnote symbols)” value was “***”. The same compound had an EC50 in the data set on beta amyloid 42 of 4.5 µM. The compound further came in with an EC50 in the data set with beta amyloid 40 of 3 µM.
The compound `CCC(CC)C(NS(=O)(=O)c1ccc(Br)s1)c1ccnn1-c1ccccc1` (centres unmarked) [Example 40, 5-Bromo-N-[2-ethyl-1-(1-phenyl-1H-pyrazol-5-yl)butyl]thiophene-2-sulfonamide] returned a melting point of 120 to 120.7 °C. Further, the midpoint of the response with beta amyloid 42, the EC50, lay at 7.5 µM. Moreover, in the data set on beta amyloid 40, the EC50 amounted to 4.1 µM.
`CCC(CC)C(c1ccnn1-c1ccccc1)N(C)S(=O)(=O)c1ccc(Br)s1` (centres unmarked) [Example 48, 5-Bromo-N-[2-ethyl-1-(1-phenyl-1H-pyrazol-5-yl)butyl]-N-methylthiophene-2-sulfonamide] showed a melting point of 115.6 to 118 °C. The “Effect on Aβ42 production” value in the data set on beta amyloid 42 is “increase”. For the same compound, it took 65.1 µM to reach a half-maximal effect in the data set with beta amyloid 40 (EC50).
For the compound `CCC(CC)C(c1ccnn1-c1ccccc1)N(C)S(=O)(=O)c1ccc(Cl)c(Cl)c1` (centres unmarked) [Example 47, 3,4-Dichloro-N-[2-ethyl-1-(1-phenyl-1H-pyrazol-5-yl)butyl]-N-methylbenzenesulfonamide], the melting point lay in the range of 102.1 to 104.1 °C. In the data set with beta amyloid 42, the “Effect on Aβ42 production” value is recorded as “increase”. The EC50 in the data set on beta amyloid 40 stood at 61.2 µM.
`CCC(CC)C(c1ccnn1-c1ccccc1)N(C)S(=O)(=O)c1ccc(C#N)cc1` (centres unmarked) [Example 43, 4-Cyano-N-[2-ethyl-1-(1-phenyl-1H-pyrazol-5-yl)butyl]-N-methylbenzenesulfonamide] gave a melting point of 37.8 to 54 °C. In addition, the “Effect on Aβ42 production” value in the data set with beta amyloid 42 is given as “increase”. Moreover, a half-maximal effect in the data set on beta amyloid 40 (EC50) was put at 47.9 µM.
Take `CCC(CC)C(NS(=O)(=O)c1ccc(Cl)s1)c1ccnn1Cc1ccc(O)cc1` (centres unmarked) [Example 8, 5-Chloro-N-{2-ethyl-1-[1-(4-hydroxybenzyl)-1H-pyrazol-5-yl]butyl}thiophene-2-sulfonamide]: the melting point was in the range of 90 to 92 °C. Moreover, the fold induction at 20 µg/mL in data set [1] amounted to 4.5.
`CCC(CC)C(c1ccnn1-c1ccccc1)N(C)S(=O)(=O)c1cc(Cl)c(Cl)s1` (centres unmarked) [Example 45, 4,5-Dichloro-N-[2-ethyl-1-(1-phenyl-1H-pyrazol-5-yl)butyl]-N-methylthiophene-2-sulfonamide]: the melting point is 99 to 100.4 °C. The “Effect on Aβ42 production” value with beta amyloid 42 is “increase”. The compound further showed an EC50 in the data set with beta amyloid 40 of 33.6 µM.
The like results for `CCC(CC)C(NS(=O)(=O)c1ccc(Cl)cc1)c1ccnn1-c1ccccc1` (centres unmarked) [Example 36, 4-Chloro-N-[2-ethyl-1-(1-phenyl-1H-pyrazol-5-yl)butyl]benzenesulfonamide] were, in that order, 135 to 136.4 °C, “increase” and 23 µM.
For `CCC(CC)C(NS(=O)(=O)c1ccc(C#N)cc1)c1ccnn1-c1ccccc1` (centres unmarked) [Example 37, 4-Cyano-N-[2-ethyl-1-(1-phenyl-1H-pyrazol-5-yl)butyl]benzenesulfonamide], in that order: 134.6 to 136.6 °C, “increase” and 85.2 µM.
